Measurements taken from patent publication EP3046573B1, “AMYLIN ANALOGUES” (Zealand Pharma A/S, priority 2013, dated 2015).
Numbered stars: 1 amine (or outer) side, 2 acyl side, 3 side chain; on linkers, the order of the positions; unused ones are H or OH. Bridge positions count the residues as written; N and C are the ends. Square brackets hold non-standard residues; d marks the D form. Peptide text beside a SMILES is read from it. * marks the point of attachment. C20 diacid = O=C(O)CCCCCCCCCCCCCCCCCCC(=O)*; γGlu = O=C(O)[C@H](CCC(=O)[*:2])N[*:1]; NMeI = CC[C@H](C)[C@H](NC)C(=O)O; Sar = CNCC(=O)O

Assay: Solubility assessment (turbidity absorbance at 325 nm)
Type: physicochemical
Conditions: stock 2 mg/ml diluted 1:1, ambient temperature (typically 25°C), n=1; for Solubility, Acetate buffer pH 4: 100 mM acetate buffer pH 4.0; for Solubility, Acetate buffer pH 5: 100 mM acetate buffer pH 5.0; for Solubility, Histidine buffer pH 6: 100 mM histidine buffer pH 6.0; for Solubility, Histidine buffer pH 7: 100 mM histidine buffer pH 7.0; for Solubility, Phosphate buffer pH 6: 100 mM phosphate buffer pH 6.0; for Solubility, Phosphate buffer pH 7: 100 mM phosphate buffer pH 7.0; for Solubility, Phosphate buffer pH 7.5: 100 mM phosphate buffer pH7.5
Method: A stock solution of the test peptide (2 mg/ml; determined from the weighed amount of peptide) in demineralized water adjusted to pH 2.5 with HCI was prepared, and aliquots were diluted 1:1 in 100 mM acetate buffer (pH 4.0 and pH 5.0), 100 mM histidine buffer (pH 6.0 and pH 7.0) and 100 mM phosphate buffer (pH 6.0, pH 7.0 and pH7.5), respectively, and loaded in a standard flat-bottom, non-sterile 96-well UV Microplate. The absorbance of samples (single samples, n=1) at 280 and 325 nm was measured in an absorbance-based plate reader, which was preheated to ambient temperature (typically 25°C). The turbidity absorbance criterion for a peptide solubility of ≥ 1 mg/ml was an absorbance at 325 nm of ≤ 0.02 absorbance units (which is 5 to 6 times the standard deviation of 8 buffer samples in a plate). Solubility data for peptides of the invention, pramlintide, and for a comparison pramlintide derivative denoted NN96 (see Example 5 below for details) are shown in Table 1, below. Table 1. Solubility data for compounds of the invention.

CC[C@H](C)[C@@H](C(=O)N[C@@H](CC(C)C)C(=O)N[C@@H](CO)C(=O)N[C@@H](CO)C(=O)N[C@H](C(=O)N[C@@H](CC(N)=O)C(=O)N[C@H](C(=O)NCC(=O)N[C@@H](CO)C(=O)N[C@@H](CC(N)=O)C(=O)N[C@H](C(=O)N1CCC[C@H]1C(N)=O)[C@@H](C)O)C(C)C)[C@@H](C)O)N(C)C(=O)[C@H](C)NC(=O)CN(C)C(=O)[C@H](Cc1ccccc1)NC(=O)[C@H](CC(N)=O)NC(=O)[C@H](CC(N)=O)NC(=O)[C@H](CO)NC(=O)[C@H](CO)NC(=O)[C@H](Cc1c[nH]cn1)NC(=O)[C@H](Cc1c[nH]cn1)NC(=O)[C@@H](CC(C)C)NC(=O)[C@H](Cc1ccccc1)NC(=O)[C@H](CCC(=O)O)NC(=O)[C@H](C)NC(=O)[C@H](CC(C)C)NC(=O)[C@H](CCCNC(=N)N)NC(=O)[C@H](CCC(N)=O)NC(=O)[C@@H](NC(=O)[C@H](C)NC(=O)[C@@H]1CSSC[C@H](NC(=O)[C@H](CCCNC(=N)N)NC(=O)CC[C@H](NC(=O)CCCCCCCCCCCCCCCCCCC(=O)O)C(=O)O)C(=O)N[C@@H](CC(N)=O)C(=O)N[C@@H]([C@@H](C)O)C(=O)N[C@@H](C)C(=O)N[C@@H]([C@@H](C)O)C(=O)N1)[C@@H](C)O [Compound 10, [19CD]-isoGlu-RC()NTATC()ATQRLAEF-DLeu-HHSSNNF-Gly(Me)-A-Ile(Me)-LSSTNVGSNTP-NH2] ({C20 diacid-γGlu}-RCNTATCATQRLAEF[dL]HHSSNNF[Sar]A[NMeI]LSSTNVGSNTP-NH2; disulfide 2-7)
SS (SS indicates solubility ≥ 1mg/ml): Solubility, Acetate buffer pH 4 | Solubility, Acetate buffer pH 5 | Solubility, Histidine buffer pH 6 | Solubility, Histidine buffer pH 7 | Solubility, Phosphate buffer pH 6 | Solubility, Phosphate buffer pH 7 | Solubility, Phosphate buffer pH 7.5

CC[C@H](C)[C@@H](C(=O)N[C@@H](CC(C)C)C(=O)N[C@@H](CO)C(=O)N[C@@H](CO)C(=O)N[C@H](C(=O)N[C@@H](CC(N)=O)C(=O)N[C@H](C(=O)NCC(=O)N[C@@H](CO)C(=O)N[C@@H](CC(N)=O)C(=O)N[C@H](C(=O)N1CCC[C@H]1C(N)=O)[C@@H](C)O)C(C)C)[C@@H](C)O)N(C)C(=O)[C@H](C)NC(=O)CN(C)C(=O)[C@H](Cc1ccccc1)NC(=O)[C@H](CC(N)=O)NC(=O)[C@@H](CC(N)=O)NC(=O)[C@H](CO)NC(=O)[C@H](CO)NC(=O)[C@H](Cc1c[nH]cn1)NC(=O)[C@H](Cc1c[nH]cn1)NC(=O)[C@H](CC(C)C)NC(=O)[C@H](Cc1ccccc1)NC(=O)[C@H](CCC(=O)O)NC(=O)[C@H](C)NC(=O)[C@H](CC(C)C)NC(=O)[C@H](CCCNC(=N)N)NC(=O)[C@H](CCC(N)=O)NC(=O)[C@@H](NC(=O)[C@H](C)NC(=O)[C@@H]1CSSC[C@H](NC(=O)[C@H](CCCNC(=N)N)NC(=O)CC[C@H](NC(=O)CCCCCCCCCCCCCCCCCCC(=O)O)C(=O)O)C(=O)N[C@@H](CC(N)=O)C(=O)N[C@@H]([C@@H](C)O)C(=O)N[C@@H](C)C(=O)N[C@@H]([C@@H](C)O)C(=O)N1)[C@@H](C)O [Compound 32, [19CD]-isoGlu-RC()NTATC()ATQRLAEFLHHSS-DAsn-NF-Gly(Me)-A-Ile(Me)-LSSTNVGSNTP-NH2] ({C20 diacid-γGlu}-RCNTATCATQRLAEFLHHSS[dN]NF[Sar]A[NMeI]LSSTNVGSNTP-NH2; disulfide 2-7)
SS (SS indicates solubility ≥ 1mg/ml): Solubility, Acetate buffer pH 4 | Solubility, Acetate buffer pH 5 | Solubility, Histidine buffer pH 6 | Solubility, Histidine buffer pH 7 | Solubility, Phosphate buffer pH 6 | Solubility, Phosphate buffer pH 7 | Solubility, Phosphate buffer pH 7.5

CC[C@H](C)[C@@H](C(=O)N[C@@H](CC(C)C)C(=O)N[C@@H](CO)C(=O)N[C@@H](CO)C(=O)N[C@H](C(=O)N[C@@H](CC(N)=O)C(=O)N[C@H](C(=O)NCC(=O)N[C@@H](CO)C(=O)N[C@@H](CC(N)=O)C(=O)N[C@H](C(=O)N1CCC[C@H]1C(N)=O)[C@@H](C)O)C(C)C)[C@@H](C)O)N(C)C(=O)[C@H](C)NC(=O)CN(C)C(=O)[C@H](Cc1ccccc1)NC(=O)[C@@H](CC(N)=O)NC(=O)[C@H](CC(N)=O)NC(=O)[C@H](CO)NC(=O)[C@H](CO)NC(=O)[C@H](Cc1c[nH]cn1)NC(=O)[C@H](Cc1c[nH]cn1)NC(=O)[C@H](CC(C)C)NC(=O)[C@H](Cc1ccccc1)NC(=O)[C@H](CCC(=O)O)NC(=O)[C@H](C)NC(=O)[C@H](CC(C)C)NC(=O)[C@H](CCCNC(=N)N)NC(=O)[C@H](CCC(N)=O)NC(=O)[C@@H](NC(=O)[C@H](C)NC(=O)[C@@H]1CSSC[C@H](NC(=O)[C@H](CCCNC(=N)N)NC(=O)CC[C@H](NC(=O)CCCCCCCCCCCCCCCCCCC(=O)O)C(=O)O)C(=O)N[C@@H](CC(N)=O)C(=O)N[C@@H]([C@@H](C)O)C(=O)N[C@@H](C)C(=O)N[C@@H]([C@@H](C)O)C(=O)N1)[C@@H](C)O [Compound 33, [19CD]-isoGlu-RC()NTATC()ATQRLAEFLHHSSN-DAsn-F-Gly(Me)-A-Ile(Me)-LSSTNVGSNTP-NH2] ({C20 diacid-γGlu}-RCNTATCATQRLAEFLHHSSN[dN]F[Sar]A[NMeI]LSSTNVGSNTP-NH2; disulfide 2-7)
SS (SS indicates solubility ≥ 1mg/ml): Solubility, Acetate buffer pH 4 | Solubility, Acetate buffer pH 5 | Solubility, Histidine buffer pH 6 | Solubility, Histidine buffer pH 7 | Solubility, Phosphate buffer pH 6 | Solubility, Phosphate buffer pH 7 | Solubility, Phosphate buffer pH 7.5
